Here are results for three compounds from paper PMC9104950, “Stereoselective Covalent Adduct Formation of Acyl Glucuronide Metabolite of Nonsteroidal Anti-Inflammatory Drugs with UDP-Glucuronosyltransferase” (International Journal of Molecular Sciences, 2022).

Data set [1] relates to proteins of Cyt (cytosolic fraction of liver homogenate). Put plainly: Covalent adduct formation of NSAIDs-AG with proteins of cytosolic fraction (Cyt). The note with it: 180 μM, 6 h; for covalent adduct formation with Cyt proteins: protein 1 mg/mL, 37 °C. It counts as binding, rat.
Data set [2] relates to proteins of Mit (mitochondrial fraction of liver homogenate). Kind of data set: Covalent adduct formation of NSAIDs-AG with proteins of mitochondrial fraction (Mit). It counts as binding, rat. The note with it: 180 μM, 6 h; for covalent adduct formation with Mit proteins: protein 1 mg/mL, 37 °C.
Data set [3] has as its system proteins of Nuc (nuclear fraction of liver homogenate). Kind of data set: Covalent adduct formation of NSAIDs-AG with proteins of nuclear fraction (Nuc). It counts as binding, rat. The note with it: 180 μM, 6 h; for covalent adduct formation with Nuc proteins: protein 1 mg/mL, 37 °C.
Another data set has as its target T1, UGT1A9 (Homo sapiens, UniProt O60656).
T1 construct: purchased Corning, Inc
T1 sequence (O60656 26-530): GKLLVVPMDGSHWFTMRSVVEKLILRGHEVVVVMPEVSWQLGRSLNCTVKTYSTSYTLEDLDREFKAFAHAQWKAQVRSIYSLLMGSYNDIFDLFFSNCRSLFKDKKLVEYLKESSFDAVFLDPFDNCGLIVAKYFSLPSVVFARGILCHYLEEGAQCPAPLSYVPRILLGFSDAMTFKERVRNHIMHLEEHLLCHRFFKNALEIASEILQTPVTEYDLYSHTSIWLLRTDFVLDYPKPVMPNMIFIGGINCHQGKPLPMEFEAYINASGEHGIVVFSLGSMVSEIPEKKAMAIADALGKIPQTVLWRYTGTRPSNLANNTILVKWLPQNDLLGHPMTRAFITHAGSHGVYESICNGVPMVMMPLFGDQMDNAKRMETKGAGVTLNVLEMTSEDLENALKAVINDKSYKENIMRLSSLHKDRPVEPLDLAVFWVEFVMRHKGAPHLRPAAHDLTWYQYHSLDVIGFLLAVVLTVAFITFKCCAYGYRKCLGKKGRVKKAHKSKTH
Kind of data set: Covalent adduct formation of NSAIDs-AG with UGT1A9. It counts as binding. The note with it: 180 μM, UGT 3.4 μM, 6 h. Here is the method: The concentrations of UGT were set at 3.4 μM by the preliminary experiments on the linearity of covalent adduct formation. The covalent adduct formation of NSAIDs-AG with organelle proteins and UGT was determined according to previous reports on NSAIDs-AG with albumin with some modifications. After a deproteinization of the reaction mixture, methanol/diethyl ether (3:1) was added to the pellet. […] The concentrations of the parent NSAIDs were measured using liquid chromatography-tandem mass spectrometry (LC-MS/MS). Aliquots of 10 μL were injected into the LC-MS/MS system. The LC-MS/MS equipment consisted of an LC system (UltiMate 3000 series, Thermo Fisher Scientific, Inc.) and TSQ Endura Triple Quadrupole Mass Spectrometer with electrospray ionization (Thermo Fisher Scientific, Inc.). Finnigan Xcalibur software (Thermo Fisher Scientific, Inc.) was used for data recording and analysis. Analysis was further performed using a reversed-phase column (COSMOSIL 5C18-MSII, 2.0 mm × 150 mm, 5 μm; Nacalai Tesque, Inc.). The column temperature was set to 40 °C, and the autosampler was maintained at 10 °C. The mobile phase (A; 30% methanol in 8.5 mM ammonium formate and 0.0075% formic acid, and B; 90% methanol in 8.5 mM ammonium formate and 0.0075% formic acid) was pumped at a flow rate of 0.2 mL/min. The initial mobile phase composition was maintained at 30% mobile phase B for 1 min, changed linearly to 90% mobile phase B from 1 to 8 min, maintained for 1 min, returned to 30% mobile phase B from 9 to 10 min, and maintained for 1 min for chromatographic column equilibrium. The MS scan was operated in positive ionization mode for DIC, MEF, ZOM, KET, and NAP, or negative ionization mode, for FLU. […] The concentrations of NSAIDs were determined from a single-point calibration in every assay for NSAIDs after confirmation of linearity between area and concentrations of NSAIDs.

For a further data set, the target named is T2, UGT2B7 (Homo sapiens, UniProt P16662).
T2 construct: purchased Corning, Inc
T2 sequence (P16662 24-529): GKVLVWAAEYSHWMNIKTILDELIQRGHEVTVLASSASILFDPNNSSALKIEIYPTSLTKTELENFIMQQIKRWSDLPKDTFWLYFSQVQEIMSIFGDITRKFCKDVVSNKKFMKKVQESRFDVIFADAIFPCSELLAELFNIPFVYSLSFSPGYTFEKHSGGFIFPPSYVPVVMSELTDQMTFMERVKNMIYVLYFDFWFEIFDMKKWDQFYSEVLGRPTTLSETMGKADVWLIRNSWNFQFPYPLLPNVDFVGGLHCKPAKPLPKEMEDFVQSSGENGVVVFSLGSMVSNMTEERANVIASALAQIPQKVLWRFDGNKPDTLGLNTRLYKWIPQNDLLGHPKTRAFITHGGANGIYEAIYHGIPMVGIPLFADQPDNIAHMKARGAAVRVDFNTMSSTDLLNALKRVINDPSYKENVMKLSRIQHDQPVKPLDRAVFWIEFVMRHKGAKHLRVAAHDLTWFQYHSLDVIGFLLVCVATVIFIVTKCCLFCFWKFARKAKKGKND
Put plainly: Covalent adduct formation of NSAIDs-AG with UGT2B7. It counts as binding. The note with it: 180 μM, UGT 3.4 μM, 6 h; for covalent adduct formation with UGT2B7: 37 °C. Here is the method:
(§1) The concentrations of UGT were set at 3.4 μM by the preliminary experiments on the linearity of covalent adduct formation. The covalent adduct formation of NSAIDs-AG with organelle proteins and UGT was determined according to previous reports on NSAIDs-AG with albumin with some modifications. After a deproteinization of the reaction mixture, methanol/diethyl ether (3:1) was added to the pellet. […] The concentrations of the parent NSAIDs were measured using liquid chromatography-tandem mass spectrometry (LC-MS/MS). Aliquots of 10 μL were injected into the LC-MS/MS system. The LC-MS/MS equipment consisted of an LC system (UltiMate 3000 series, Thermo Fisher Scientific, Inc.) and TSQ Endura Triple Quadrupole Mass Spectrometer with electrospray ionization (Thermo Fisher Scientific, Inc.). Finnigan Xcalibur software (Thermo Fisher Scientific, Inc.) was used for data recording and analysis. Analysis was further performed using a reversed-phase column (COSMOSIL 5C18-MSII, 2.0 mm × 150 mm, 5 μm; Nacalai Tesque, Inc.). The column temperature was set to 40 °C, and the autosampler was maintained at 10 °C. The mobile phase (A; 30% methanol in 8.5 mM ammonium formate and 0.0075% formic acid, and B; 90% methanol in 8.5 mM ammonium formate and 0.0075% formic acid) was pumped at a flow rate of 0.2 mL/min. The initial mobile phase composition was maintained at 30% mobile phase B for 1 min, changed linearly to 90% mobile phase B from 1 to 8 min, maintained for 1 min, returned to 30% mobile phase B from 9 to 10 min, and maintained for 1 min for chromatographic column equilibrium. The MS scan was operated in positive ionization mode for DIC, MEF, ZOM, KET, and NAP, or negative ionization mode, for FLU. The conditions for electrospray ionization were set at 3500 V spray voltage for positive ionization mode and 2500 V spray voltage for negative ionization mode at 400 °C capillary temperature, and 300 °C vaporizer temperature with 40 arbitrary units of nitrogen sheath gas and 10 arbitrary units of auxiliary gas. The MS scan was operated in the positive or negative ionization mode. The selected reaction monitoring (SRM) mode was used, with argon as the collision gas at 1.5 mTorr. The mass resolution was set at 0.7 full-width at half-height (unit resolution). SRM transitions (precursor and product ions) were mass to charge ratios of (m/z) 296 > 214 for DIC (positive ionization mode), 294 > 250 for DIC (negative ionization mode), 242 > 224 for MEF, 292 > 139 for ZOM, 243 > 198 for R- and S-FLU, 255 > 209 for R- and S-KET, 231 > 185 for R- and S-NAP, and 302 > 220 for DIC-d4. The collision energies were 15 V for DIC (negative ionization mode), ZOM, MEF, FLU, KET, and NAP; 35 V for DIC (positive ionization mode); and DIC-d4. The concentrations of NSAIDs were determined from a single-point calibration in every assay for NSAIDs after confirmation of linearity between area and concentrations of NSAIDs.

Details of data set [4]: method as in PMID 20606003, PMID 1673415. The note with it: phosphate buffers (pH 7.4); cited from earlier work.
The test system of data set [5] is proteins of Mic (microsomal fraction of liver homogenate). Put plainly: Covalent adduct formation of NSAIDs-AG with proteins of microsomal fraction (Mic). The settings on record: for covalent adduct formation with Mic proteins: protein 1 mg/mL.
The target of a further data set is T3, UGT2B4 (Homo sapiens, UniProt P06133).
T3 construct: purchased Corning, Inc
T3 sequence (P06133 24-528): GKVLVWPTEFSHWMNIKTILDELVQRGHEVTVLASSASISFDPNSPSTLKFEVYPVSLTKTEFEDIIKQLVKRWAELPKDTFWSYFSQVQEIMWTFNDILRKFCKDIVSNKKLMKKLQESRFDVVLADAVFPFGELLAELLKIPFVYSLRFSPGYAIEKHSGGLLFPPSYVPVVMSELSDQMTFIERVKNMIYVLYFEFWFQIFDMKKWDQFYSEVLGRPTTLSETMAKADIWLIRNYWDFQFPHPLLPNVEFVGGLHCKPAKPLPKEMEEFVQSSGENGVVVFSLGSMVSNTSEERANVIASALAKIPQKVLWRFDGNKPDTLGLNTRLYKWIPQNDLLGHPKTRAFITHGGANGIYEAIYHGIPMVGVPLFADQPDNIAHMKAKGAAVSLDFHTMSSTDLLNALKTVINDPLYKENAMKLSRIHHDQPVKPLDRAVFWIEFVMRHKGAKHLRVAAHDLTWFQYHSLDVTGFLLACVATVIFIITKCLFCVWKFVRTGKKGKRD
Put plainly: Covalent adduct formation of NSAIDs-AG with UGT2B4. It counts as binding. The settings on record: R vs S diastereomer; 180 μM, UGT 3.4 μM, 6 h. Here is the method: as §1

On to `O=C(Cc1ccccc1Nc1c(Cl)cccc1Cl)O[C@@H]1O[C@H](C(=O)O)[C@@H](O)[C@H](O)[C@H]1O` [DIC-AG], for which the “covalent adducts with organelle proteins (Cyt) relative to R-KET-AG” value in data set [1] (1 mg/mL) is “approximately twice as high”. Besides, the “covalent adduct formation with Cyt proteins” value in data set [1] is given as “formed covalent adducts”. For the same compound, in data set [2] (1 mg/mL), the “covalent adducts with organelle proteins (Mit) relative to R-KET-AG” value is recorded as “approximately twice as high”. Besides, the “covalent adduct formation with Mit proteins” value in data set [2] is on record as “formed covalent adducts”. Also, the “covalent adducts with organelle proteins (Nuc) relative to R-KET-AG” value in data set [3] (1 mg/mL) was “approximately twice as high”. Also, the “covalent adduct formation with Nuc proteins” value in data set [3] is given as “formed covalent adducts”. The “capacity to form covalent adducts with UGT1A9 relative to mefenamic acid-AG” value at UGT1A9 is “approximately 10 times”. Also, on UGT2B7, the “amounts of covalent adducts with UGT2B7 compared with UGT1A9” value is recorded as “significantly lower amounts of covalent adducts”, the “capacity to form covalent adducts with UGT2B7 relative to mefenamic acid-AG” value is “approximately 10 times” and the “covalent adduct formation with UGT2B7” value was “higher amounts of covalent adducts”. In data set [4], the half-lives in buffers entry is given as “relatively short half-lives”. For the same compound, the “covalent adducts with organelle proteins (Mic) relative to R-KET-AG” value in data set [5] (180 μM, 1 mg/mL, 6 h) is “approximately twice as high”. The “covalent adduct formation with Mic proteins” value in data set [5] (180 μM, 6 h, 37 °C) is listed as “formed covalent adducts”. Also, the “number of covalent adducts with the proteins of Mic, effect of concentration and incubation time” value in data set [5] (DIC-AG 120-600 μM for 6 h, 180 μM for 1-24 h, Mic 1 mg/mL, 37 °C) was “increased in a concentration- and time-dependent manner”.
For `CC(C(=O)O[C@@H]1O[C@H](C(=O)O)[C@@H](O)[C@H](O)[C@H]1O)c1cccc(C(=O)c2ccccc2)c1` (stereo partly shown) [KET-AG], the “covalent adduct formation with Cyt proteins” value in data set [1] is reported as “formed covalent adducts”. The “covalent adduct formation with Mit proteins” value in data set [2] is on record as “formed covalent adducts”. For the same compound, in data set [3], the “covalent adduct formation with Nuc proteins” value is “formed covalent adducts”. On UGT2B4, the “covalent adduct formation with UGT2B4 compared with the other diastereomer” value is on record as “remarkably stereoselective formation of a covalent adduct”. The “covalent adduct formation with UGT2B7 compared with the other diastereomer” value at UGT2B7 (R vs S diastereomer) was “remarkably stereoselective formation of a covalent adduct”. For the same compound, the “covalent adduct formation with Mic proteins” value in data set [5] (180 μM, 6 h, 37 °C) is “formed covalent adducts”.
In the case of `COc1ccc2cc(C(C)C(=O)O[C@@H]3O[C@H](C(=O)O)[C@@H](O)[C@H](O)[C@H]3O)ccc2c1` (stereo partly shown) [NAP-AG], at UGT2B7, the “covalent adduct formation with UGT2B7” value is “higher amounts of covalent adducts”. Moreover, the half-lives in buffers entry in data set [4] is “relatively short half-lives”.
